Reference: patent US20060069120A1, “Novel piperidine derivaties as modulators of chemokine receptor ccr5” (priority 2002, published 2006)

Target: recombinant human CCR5 receptor (Homo sapiens, UniProt P51681)
Assay: MIP-1α radioligand binding assay (scintillation proximity)
Conditions: displacement of 0.1 nM iodinated MIP-1α; membranes of Chinese hamster ovary cells expressing recombinant human CCR5; average if tested more than once
Description: The ability of compounds to inhibit the binding of MIP-1α was assessed by an in vitro radioligand binding assay. Membranes were prepared from Chinese hamster ovary cells which expressed the recombinant human CCR5 receptor. These membranes were incubated with 0.1 nM iodinated MIP-1α, scintillation proximity beads and various concentrations of the compounds of the invention in 96-well plates. The amount of iodinated MIP-1α bound to the receptor was determined by scintillation counting. Competition curves were obtained for compounds and the concentration of compound which displaced 50% of bound iodinated MIP-1α was calculated (IC50).
In Table IV the results are presented as Pic50 values. A Pic50 value is the negative log (to base 10) of the IC50 result, so an IC50 of 1 μM (that is 1×10^−6M) gives a Pic50 of 6. If a compound was tested more than once then the data below is an average of the probative tests results.

recombinant human CCR5 receptor, sequence (P51681 whole entry): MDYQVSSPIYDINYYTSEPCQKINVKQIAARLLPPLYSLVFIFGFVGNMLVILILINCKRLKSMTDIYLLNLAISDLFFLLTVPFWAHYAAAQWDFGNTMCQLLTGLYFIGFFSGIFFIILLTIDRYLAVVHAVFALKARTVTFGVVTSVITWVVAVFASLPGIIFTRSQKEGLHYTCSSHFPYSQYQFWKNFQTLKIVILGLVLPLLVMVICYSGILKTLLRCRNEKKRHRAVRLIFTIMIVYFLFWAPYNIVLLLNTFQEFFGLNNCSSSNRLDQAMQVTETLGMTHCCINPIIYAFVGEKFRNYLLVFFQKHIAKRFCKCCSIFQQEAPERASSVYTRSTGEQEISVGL

## CS(=O)(=O)c1ccc(CNC(=O)CCC2CCN(CCC(c3ccccc3)C3CCN(S(C)(=O)=O)CC3)CC2)cc1 (single isomer, unassigned) [Table V Compound 3]
  IC50: 89.1 nM

## CS(=O)(=O)c1ccc(NC(=O)CC2CCN(CCC(c3ccccc3)N3CCN(c4ccccc4)CC3)CC2)cc1 (centres unmarked) [Table I Compound 3]
  IC50: 12 nM

## CS(=O)(=O)c1ccc(NC(=O)CC2CCN(CCC(c3ccccc3)C3CCN(C(=O)c4ccc(Cl)cc4)CC3)CC2)cc1 (centres unmarked) [Table I Compound 5]
  IC50: 1.32 nM

## CS(=O)(=O)N1CCC(C(CCN2CCC(CC(=O)Nc3ccc(F)cc3)CC2)c2ccccc2)CC1 (centres unmarked) [Table I Compound 6]
  IC50: 5.62 nM

## CS(=O)(=O)c1ccc(NC(=O)CC2CCN(CC[C@@H](c3ccccc3)c3ccc(S(C)(=O)=O)cc3)CC2)cc1 [Table IV Compound 1, (S) N-(4-methanesulphonylphenyl)-1-[3-phenyl-3-(4-methanesulphonylphenyl)-propyl]piperidin-4-yl acetamide]
  IC50: 0.871 nM
